Results reported in patent publication US20240270821A1, “GIP/GLP1/GCG TRI-RECEPTOR AGONISTS AND USES THEREOF” (priority 2023, published 2024).
Where two headings read alike, the source gives them in different places. Starred links: 1 amine or outer side, 2 acyl side, 3 side chain; linkers in the order of their positions; H or OH if unused. Non-standard residues stand in square brackets, D forms with d. Residues, ends and D or L forms follow the SMILES beside them. Groups on a side chain read outwards from the residue. No end group written: not given here. *: point of attachment. C20 diacid = O=C(O)CCCCCCCCCCCCCCCCCCC(=O)*; C18 diacid = O=C(O)CCCCCCCCCCCCCCCCC(=O)*; αMePhe(2-F) = C[C@](N)(Cc1ccccc1F)C(=O)O; γGlu = O=C(O)[C@H](CCC(=O)[*:2])N[*:1]; αMe4Pal = C[C@](N)(Cc1ccncc1)C(=O)O; αMeY = C[C@](N)(Cc1ccc(O)cc1)C(=O)O; αMeF = C[C@](N)(Cc1ccccc1)C(=O)O; 4Pal = N[C@@H](Cc1ccncc1)C(=O)O; αMeL = CC(C)C[C@](C)(N)C(=O)O; αMeS = C[C@](N)(CO)C(=O)O; Orn = NCCC[C@H](N)C(=O)O; AEEA = NCCOCCOCC(=O)O; Aib = CC(C)(N)C(=O)O

Tests used:
Type in all cases: cell-based
hGIPR [1] = target: T1, hGIPR (Homo sapiens, UniProt P48546); test: Functional cAMP activity in the presence of 1% HSA; conditions: read-out: cAMP Rel EC50, hGIPR
T1 sequence (P48546 22-466): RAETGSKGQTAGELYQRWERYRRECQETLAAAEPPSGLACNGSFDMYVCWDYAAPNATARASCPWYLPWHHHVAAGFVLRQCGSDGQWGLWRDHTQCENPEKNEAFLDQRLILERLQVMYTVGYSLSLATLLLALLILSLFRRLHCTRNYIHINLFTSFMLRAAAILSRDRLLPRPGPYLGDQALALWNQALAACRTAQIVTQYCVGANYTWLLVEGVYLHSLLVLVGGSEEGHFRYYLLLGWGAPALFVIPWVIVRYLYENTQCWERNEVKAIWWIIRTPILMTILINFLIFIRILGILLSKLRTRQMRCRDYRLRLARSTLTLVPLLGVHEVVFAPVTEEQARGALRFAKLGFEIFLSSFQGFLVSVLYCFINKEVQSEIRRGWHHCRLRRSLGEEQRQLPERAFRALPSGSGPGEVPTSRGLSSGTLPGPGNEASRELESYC

hGLP-1R [2] = target: T2, hGLP-1R (Homo sapiens, UniProt P43220); test: Functional cAMP activity in the presence of 1% HSA; conditions: read-out: cAMP Rel EC50, hGLP-1R
human GcgR = human GcgR (Homo sapiens, UniProt P47871); test: Functional cAMP activity in the presence of 1% HSA; conditions: read-out: cAMP Rel EC50, hGcgR
hGIPR [3] = target: T1, hGIPR; test: Functional cAMP activation in the presence of 0.1% casein (no HSA); conditions: read-out: Relative cAMP EC50, hGIPR;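 as to Relative cAMP EC50, hGIPR: intracellular cAMP rise after 30 min at 37 °C read by HTRF against a standard curve, scaled between buffer alone (0%) and top control ligand concentration (100%), four-parameter fit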;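 as to Relative cAMP EC50, hGLP-1R: intracellular cAMP rise after 30 min at 37 °C read by HTRF, normalized between buffer only (0%) and maximal control ligand (100%), four-parameter variable-slope fit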;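 as to Relative cAMP EC50, hGcgR: intracellular cAMP rise after 30 min at 37 °C, read by HTRF against a cAMP standard curve, scaled from buffer only (0%) to maximal control ligand response (100%)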
hGLP-1R [4] = target: T2, hGLP-1R; test: as above; conditions: read-out: Relative cAMP EC50, hGLP-1R
hGcgR = hGcgR (Homo sapiens, UniProt P47871); test: as above; conditions: read-out: Relative cAMP EC50, hGcgR;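 also: intracellular cAMP rise after 30 min at 37 °C, read by HTRF against a cAMP standard curve, scaled from buffer only (0%) to maximal control ligand response (100%)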
[5] = in the presence of 0.1% casein (no HSA), geometric mean
[6] = 0.1% casein, no HSA, geometric mean

T2 sequence (P43220 24-463): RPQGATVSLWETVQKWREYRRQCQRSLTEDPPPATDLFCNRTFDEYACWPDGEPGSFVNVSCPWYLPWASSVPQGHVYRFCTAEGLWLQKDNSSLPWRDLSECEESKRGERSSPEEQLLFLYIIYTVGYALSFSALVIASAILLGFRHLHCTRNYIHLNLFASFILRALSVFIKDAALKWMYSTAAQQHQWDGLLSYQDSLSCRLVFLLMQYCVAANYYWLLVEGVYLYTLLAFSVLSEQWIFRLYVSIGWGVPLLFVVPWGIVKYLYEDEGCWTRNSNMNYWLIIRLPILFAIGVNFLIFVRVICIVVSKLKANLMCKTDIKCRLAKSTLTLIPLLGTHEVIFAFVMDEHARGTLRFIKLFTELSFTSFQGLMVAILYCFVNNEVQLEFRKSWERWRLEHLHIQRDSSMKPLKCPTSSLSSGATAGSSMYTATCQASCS
Sequence of human GcgR (P47871 26-477): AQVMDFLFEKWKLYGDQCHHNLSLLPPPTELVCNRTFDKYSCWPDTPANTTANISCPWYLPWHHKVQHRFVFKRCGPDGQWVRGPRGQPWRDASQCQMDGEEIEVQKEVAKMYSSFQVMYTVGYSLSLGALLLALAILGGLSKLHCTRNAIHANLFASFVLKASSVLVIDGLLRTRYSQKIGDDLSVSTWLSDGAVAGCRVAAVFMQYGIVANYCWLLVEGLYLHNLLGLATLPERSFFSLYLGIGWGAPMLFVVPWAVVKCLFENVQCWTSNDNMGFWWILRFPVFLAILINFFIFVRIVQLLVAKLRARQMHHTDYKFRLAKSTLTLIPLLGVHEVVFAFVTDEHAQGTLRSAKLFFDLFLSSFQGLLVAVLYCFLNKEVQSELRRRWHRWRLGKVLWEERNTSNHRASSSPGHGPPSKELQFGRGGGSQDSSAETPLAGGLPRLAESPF
Sequence of hGcgR (P47871 26-477): as above

Row | Molecule | EC50 (hGIPR [3]) [nM] | EC50 (hGLP-1R [4]) [nM] | EC50 (hGcgR) [nM] | EC50 (hGIPR [1]) [nM] | EC50 (hGLP-1R [2]) [nM] | EC50 (human GcgR) [nM] | EC50 (hGIPR [3]; [5]) [nM] | EC50 (hGLP-1R [4]; [5]) [nM] | EC50 (hGcgR; [5]) [nM] | EC50 (hGIPR [3]; [6]) [nM] | EC50 (hGLP-1R [4]; [6]) [nM] | EC50 (hGcgR; [6]) [nM]
1 | H-Y[Aib]QGTFTSD[4Pal]SQ[αMeL]LDKK([AEEA-γGlu-C18 diacid])AQ[αMe4Pal]AFIEWLIEGGPSSGAPPPSGS-NH2 [Example 830] | – | – | – | 44.8 | 180 | 809 | 0.132 | 0.791 | 3.21 | – | – | –
2 | H-Y[Aib]QGTFTSD[4Pal]SR[αMeL]LDKK([AEEA-γGlu-C18 diacid])AQ[αMe4Pal]AFIEYLIE[Aib]GPSSGAPPPSGS-NH2 [Example 809] | – | – | – | 20.4 | 249 | 377 | 0.194 | 1.87 | 1.74 | – | – | –
3 | Y[Aib]QGTFTSD[4Pal]S[Orn][αMeL]LDKK([γGlu-γGlu-C18 diacid])AQ[αMe4Pal]AFIE[αMe4Pal]LIE[Aib]GPSSGEPPPSGS-NH2 [Example 989] | – | – | – | 8 | 402 | 247 | 0.103 | 3.92 | 2.27 | – | – | –
4 | H-Y[Aib]QGT[αMePhe(2-F)]TSD[4Pal][αMeS]I[αMeL]LD[Orn]QAQ[αMe4Pal]EFI[dE][αMeY]LIEGGPSSGAPPPSGS-NH2 [Example 1232] | – | – | – | 0.00687 | 0.694 | 8.53 | – | – | – | 0.00893 | 0.723 | 6.69
5 | H-Y[Aib]QGT[αMePhe(2-F)]TSD[4Pal][αMeS]I[αMeL]LD[Orn]K([AEEA-γGlu-γGlu-C18 diacid])AQ[αMe4Pal]EFI[dE][αMeY]LIEGGPSSGEPPPSGSE-NH2 [Example 1179] | – | – | – | 0.58 | 37.9 | 197 | 0.0102 | 0.652 | 2.87 | – | – | –
6 | H-Y[Aib]QGT[αMePhe(2-F)]TSD[4Pal][αMeS]I[αMeL]LD[Orn]K([AEEA-γGlu-C18 diacid])AA[Aib]EFI[dE][αMeY]LIEGGPSSGAPPPSGTGQ-OH [Example 724] | 0.0102 | 0.256 | 1.74 | 1.06 | 26.4 | 209 | – | – | – | – | – | –
7 | H-Y[Aib]QGT[αMePhe(2-F)]TSD[4Pal]SILLDKK([γGlu-γGlu-C18 diacid])AQ[Aib]AFIE[αMeY]LEEGGPSSGAPPPSGEGE-NH2 [Example 667] | 0.0217 | 0.42 | 2.34 | 1.46 | 33 | 215 | – | – | – | – | – | –
8 | H-Y[Aib]QGT[αMePhe(2-F)]TSDYSILLDKK([AEEA-γGlu-C18 diacid])AQ[Aib]AFIEYLEEGGPSSGAPPPEEG-NH2 [Example 399] | 0.0413 | 0.302 | 1.51 | 19.6 | 42.8 | 560 | – | – | – | – | – | –
9 | H-Y[Aib]QGTFTSDYSK[αMeL]LDKK([AEEA-γGlu-C20 diacid])AQQAFIEYLIAGGPSSGAPPPSSE-NH2 [Example 322] | – | – | – | 89.3 | 135 | 2620 | 0.264 | 0.394 | 5.41 | – | – | –
10 | Y[Aib]QGTFTSD[4Pal]SQ[αMeL]LDKK([γGlu-dE-dE-C18 diacid])AQ[αMe4Pal]AFIEYLIE[Aib]GPSSGAPPPSGSEE-NH2 [Example 930] | – | – | – | 19.9 | 824 | 1700 | 0.244 | 11 | 13 | – | – | –
11 | H-Y[Aib]QGTFTSD[4Pal]SQ[αMeL]LDKK([γGlu-γGlu-C18 diacid])AQ[αMe4Pal]AFIEYLIAGGPSSGEPPPSGS-NH2 [Example 968] | – | – | – | 11.7 | 103 | 625 | 0.0928 | 1.04 | 4.72 | – | – | –
12 | H-Y[Aib]QGTFTSDYSI[αMeL]LDKQAAK([AEEA-AEEA-γGlu-C20 diacid])QFVEWLIA[Aib]GPSSGEPPPGTG-NH2 [Example 336] | – | – | – | 64.4 | 227 | 1740 | 0.306 | 0.921 | 7.05 | – | – | –
13 | H-Y[Aib]QGT[αMeF]TSD[4Pal][αMeS]I[αMeL]LD[Orn]K([AEEA-γGlu-C18 diacid])AQ[αMe4Pal]EFI[dE][αMeY]LIEGGPSSGAPPPSGSE-NH2 [Example 1166] | – | – | – | 1.1 | 65.6 | 427 | 0.00999 | 0.478 | 2.94 | – | – | –

More lines, main results first:

Row | EC50 (hGIPR [3]) [nM] | EC50 (hGLP-1R [4]) [nM] | EC50 (hGcgR) [nM] | Molecule | EC50 (hGIPR [1]) [nM] | EC50 (hGLP-1R [2]) [nM] | EC50 (human GcgR) [nM] | EC50 (hGIPR [3]; [5]) [nM] | EC50 (hGLP-1R [4]; [5]) [nM] | EC50 (hGcgR; [5]) [nM] | EC50 (hGIPR [3]; [6]) [nM] | EC50 (hGLP-1R [4]; [6]) [nM] | EC50 (hGcgR; [6]) [nM]
14 | 0.0132 | 0.417 | 2.08 | H-Y[Aib]QGT[αMePhe(2-F)]TSD[4Pal][αMeS]I[αMeL]LD[Orn]K([AEEA-γGlu-C18 diacid])AQ[αMe4Pal]EFI[dE][αMeY]LVEGGPSSGEPPPSGTGE-NH2 [Example 734] | 1.3 | 38.1 | 230 | – | – | – | – | – | –
15 | 0.0184 | 0.374 | 7.37 | CC[C@H](C)[C@H](NC(=O)[C@H](CC(C)C)NC(=O)[C@](C)(Cc1ccncc1)NC(=O)[C@@H](CCC(=O)O)NC(=O)[C@@H](NC(=O)[C@H](Cc1ccccc1)NC(=O)[C@H](CCCN)NC(=O)C(C)(C)NC(=O)[C@H](CCC(N)=O)NC(=O)[C@H](C)NC(=O)[C@H](CCCCNC(=O)COCCOCCNC(=O)CC[C@H](NC(=O)CCCCCCCCCCCCCCCCC(=O)O)C(=O)O)NC(=O)[C@H](CCCN)NC(=O)[C@H](CC(=O)O)NC(=O)[C@H](CC(C)C)NC(=O)[C@](C)(CC(C)C)NC(=O)[C@@H](NC(=O)[C@](C)(CO)NC(=O)[C@H](Cc1ccncc1)NC(=O)[C@H](CC(=O)O)NC(=O)[C@H](CO)NC(=O)[C@@H](NC(=O)[C@](C)(Cc1ccccc1F)NC(=O)[C@@H](NC(=O)CNC(=O)[C@H](CCC(N)=O)NC(=O)C(C)(C)NC(=O)[C@@H](N)Cc1ccc(O)cc1)[C@@H](C)O)[C@@H](C)O)[C@@H](C)CC)[C@@H](C)CC)C(=O)N[C@@H](CCC(=O)O)C(=O)NCC(=O)NCC(=O)N1CCC[C@H]1C(=O)N[C@@H](CO)C(=O)N[C@@H](CO)C(=O)NCC(=O)N[C@@H](CCC(=O)O)C(=O)N1CCC[C@H]1C(=O)N1CCC[C@H]1C(=O)N1CCC[C@H]1C(=O)N[C@@H](CCC(=O)O)C(N)=O [Example 453] (H-Y[Aib]QGT[αMePhe(2-F)]TSD[4Pal][αMeS]I[αMeL]LD[Orn]K([AEEA-γGlu-C18 diacid])AQ[Aib][Orn]FI[dE][αMe4Pal]LIEGGPSSGEPPPE-NH2) | 1.95 | 20.6 | 261 | – | – | – | – | – | –
16 | 0.17 | 0.786 | 5.01 | Y[Aib]QGT[αMePhe(2-F)]TSD[4Pal][αMeS]ILLD[Orn]K([γGlu-γGlu-C18 diacid])AQ[Aib][Orn]FI[dE]YLIEGGPSSGEPPPEGEEE-NH2 [Example 606] | 5.69 | 53.1 | 474 | – | – | – | – | – | –
17 | 0.105 | 0.89 | 4.34 | H-Y[Aib]QGT[αMePhe(2-F)]TSD[4Pal][αMeS]I[αMeL]LD[Orn]K([γGlu-γGlu-C18 diacid])AQ[Aib][Orn]FI[dE][αMeY]LAEGGPSSGEPPPSGGEE-NH2 [Example 590] | 4.25 | 58.7 | 309 | – | – | – | – | – | –
18 | 0.0298 | 0.199 | 3.04 | CC[C@H](C)[C@H](NC(=O)[C@H](Cc1ccccc1)NC(=O)[C@H](CCCN)NC(=O)C(C)(C)NC(=O)[C@H](CCC(N)=O)NC(=O)[C@H](C)NC(=O)[C@H](CCCCNC(=O)COCCOCCNC(=O)CC[C@H](NC(=O)CCCCCCCCCCCCCCCCC(=O)O)C(=O)O)NC(=O)[C@H](CCCN)NC(=O)[C@H](CC(=O)O)NC(=O)[C@H](CC(C)C)NC(=O)[C@](C)(CC(C)C)NC(=O)[C@@H](NC(=O)[C@](C)(CO)NC(=O)[C@H](Cc1ccc(O)cc1)NC(=O)[C@H](CC(=O)O)NC(=O)[C@H](CO)NC(=O)[C@@H](NC(=O)[C@](C)(Cc1ccccc1)NC(=O)[C@@H](NC(=O)CNC(=O)[C@H](CCC(N)=O)NC(=O)C(C)(C)NC(=O)[C@@H](N)Cc1ccc(O)cc1)[C@@H](C)O)[C@@H](C)O)[C@@H](C)CC)C(=O)N[C@H](CCC(=O)O)C(=O)N[C@@H](Cc1ccc(O)cc1)C(=O)N[C@@H](CC(C)C)C(=O)N[C@@H](CC(C)C)C(=O)N[C@@H](CCC(=O)O)C(=O)NCC(=O)NCC(=O)N1CCC[C@H]1C(=O)N[C@@H](CO)C(=O)N[C@@H](CO)C(=O)NCC(=O)N[C@@H](CCC(=O)O)C(=O)N1CCC[C@H]1C(=O)N1CCC[C@H]1C(=O)N1CCC[C@H]1C(=O)N[C@@H](CCC(=O)O)C(N)=O [Example 391] (H-Y[Aib]QGT[αMeF]TSDY[αMeS]I[αMeL]LD[Orn]K([AEEA-γGlu-C18 diacid])AQ[Aib][Orn]FI[dE]YLLEGGPSSGEPPPE-NH2) | 11.5 | 34.4 | 808 | – | – | – | – | – | –
